Where a name gives a salt, the structure may show the parent alone. Read-outs that look alike come from different tables or passages of the source.
Legend:
Qualitative solubility = assay type: physicochemical
hCA IX = hCA IX (Homo sapiens, UniProt Q16790); test: CA-catalysed CO2 hydration stopped-flow inhibition assay, hCA IX; details: for Ki: stopped-flow CO2 hydration, mean ± standard error, three assays; for Selectivity Ratio A = hCA II/IX: ratio of Ki hCA II / Ki hCA IX
hCA XII = hCA XII (Homo sapiens, UniProt O43570); test: CA-catalysed CO2 hydration stopped-flow inhibition assay, hCA XII; details: for Ki: stopped-flow CO2 hydration, mean ± standard error, three assays; for Selectivity Ratio B = hCA II/XII: ratio of Ki hCA II / Ki hCA XII
hCA I = hCA I (Homo sapiens, UniProt P00915); test: CA-catalysed CO2 hydration stopped-flow inhibition assay, hCA I
hCA II = hCA II (Homo sapiens, UniProt P00918); test: CA-catalysed CO2 hydration stopped-flow inhibition assay, hCA II
[1] = Ki (nM) hCA II, mean ± standard error, three assays

Sequence of hCA I (P00915 whole entry): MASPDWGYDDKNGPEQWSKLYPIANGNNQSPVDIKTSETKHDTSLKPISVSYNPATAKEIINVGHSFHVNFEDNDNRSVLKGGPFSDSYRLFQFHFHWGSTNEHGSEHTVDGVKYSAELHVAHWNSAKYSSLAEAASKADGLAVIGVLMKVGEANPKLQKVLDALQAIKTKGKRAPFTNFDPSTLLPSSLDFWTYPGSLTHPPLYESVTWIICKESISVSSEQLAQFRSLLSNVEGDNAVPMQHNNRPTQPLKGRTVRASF
Sequence of hCA XII (O43570 25-354): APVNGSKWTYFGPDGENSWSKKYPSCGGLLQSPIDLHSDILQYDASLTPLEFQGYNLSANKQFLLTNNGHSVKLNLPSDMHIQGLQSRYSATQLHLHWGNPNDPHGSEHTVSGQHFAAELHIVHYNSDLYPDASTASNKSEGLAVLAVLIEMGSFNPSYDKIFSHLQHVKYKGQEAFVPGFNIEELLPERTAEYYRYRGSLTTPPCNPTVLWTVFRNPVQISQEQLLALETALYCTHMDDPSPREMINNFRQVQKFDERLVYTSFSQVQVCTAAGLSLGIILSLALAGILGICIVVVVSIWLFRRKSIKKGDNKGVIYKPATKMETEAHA

Compound | solubility in water (Qualitative solubility) | Ki (hCA IX; Ki (nM) hCA IX) | Ki (hCA XII; Ki (nM) hCA XII) | melting point | also measured
NS(=O)(=O)c1ccc2sc(N3C(=O)c4c(Br)c(Br)c(Br)c(Br)c4C3=O)nc2c1 [Compound 4, 2-(4,5,6,7-Tetrabromo-1,3-dioxoisoindolin-2-yl) Benzo[d]Thiazole-5-Sulphonamide] | insoluble | 4030 ± 237 nM | 87 ± 6 nM | – | Selectivity Ratio A = hCA II/IX (hCA IX): 0.011; Selectivity Ratio B = hCA II/XII (hCA XII): 0.506; Ki (hCA I): 463 ± 29 nM; Ki (hCA II; [1]): 44 ± 1.9 nM
NS(=O)(=O)c1ccc(CCN2C(=O)C=CC2=O)cc1 [Compound 2, 4-(2-(2,5-dioxo-2H-pyrrol-1(5H)-yl)ethyl)benzenesulphonamide] | insoluble | 7420 ± 348 nM | 69 ± 4.5 nM | 210 °C | –
NS(=O)(=O)c1ccc(N2C(=O)c3c(Cl)c(Cl)c(Cl)c(Cl)c3C2=O)cc1 [Compound 6, 4-(4,5,6,7-tetrachloro-1,3-dioxoisoindolin-2-yl) benzenesulphonamide] | insoluble | – | – | – | –
NS(=O)(=O)c1ccc(N2C(=O)c3cccc4c(S(=O)(=O)O)ccc(c34)C2=O)cc1 (as salt: potassium) [Compound 1, 4-(4-sulfo-1,8-napthalic-1,3-dioxopyridine) potassium benzenesulphonamide] | – | – | – | 277 °C | –
NS(=O)(=O)c1ccc(CN2C(=O)c3c(Cl)c(Cl)c(Cl)c(Cl)c3C2=O)cc1 [Compound 7, 4-((4,5,6,7-Tetrachloro-1,3-dioxoisoindolin-2-yl) Methyl) Benzenesulphonamide] | insoluble | 103 ± 5 nM | – | – | –
NS(=O)(=O)c1ccc(S(=O)(=O)Nc2cccc3c(Cl)c[nH]c23)cc1 [IND, Indisulam, reference compound] | – | – | – | – | Ki (hCA XII; read-out: Ki (nM) hCA XII): 3.4 ± 0.2 nM
NS(=O)(=O)c1ccc(N2C(=O)c3ccc([N+](=O)[O-])cc3C2=O)c(F)c1 [Compound 5, 3-fluoro-4-(5-nitro-1,3-dioxoisoindolin-2-yl) benzenesulphonamide] | insoluble | 4900 ± 300 nM | 75 ± 4 nM | 232 °C | Selectivity Ratio B = hCA II/XII (hCA XII): 0.061; Ki (hCA I): 400 ± 31 nM; Ki (hCA II; [1]): 4.6 ± 0.3 nM
NS(=O)(=O)c1ccc(N2C(=O)c3cccc4c(S(=O)(=O)O)ccc(c34)C2=O)cc1 [Compound 1, 4-(4-sulfo-1,8-napthalic-1,3-dioxopyridine) potassium benzenesulphonamide] | fully soluble | – | – | – | Ki (hCA IX; read-out: Ki (nM) hCA IX): 7770 ± 145 nM; Ki (hCA I; read-out: Ki (nM) hCA I, stopped-flow CO2 hydration, mean ± standard error, three assays): 49 ± 3.2 nM; Ki (hCA II; read-out: Ki (nM) hCA II, mean ± standard error, three assays): 13 ± 0.9 nM
NS(=O)(=O)c1ccc2sc(N3C(=O)c4c(Cl)c(Cl)c(Cl)c(Cl)c4C3=O)nc2c1 [Compound 3, 2-(4,5,6,7-tetrachloro-1,3-dioxoisoindolin-2-yl) benzo[d]thiazole-5-sulphonamide] | fully soluble | 933 ± 56 nM | 80 ± 7 nM | 302.2 °C | Selectivity Ratio A = hCA II/IX (hCA IX): 0.795; Ki (hCA I): 258 ± 12 nM

Further lines, with some results ahead:

solubility in water (Qualitative solubility) | Ki (hCA IX; Ki (nM) hCA IX) | Ki (hCA XII; Ki (nM) hCA XII) | melting point | Compound | also measured
insoluble | 559 ± 26 nM | 309 ± 24 nM | 313 °C | NS(=O)(=O)c1ccccc1N1C(=O)c2c(Cl)c(Cl)c(Cl)c(Cl)c2C1=O [Compound 10, 2-(4,5,6,7-tetrachloro-1,3-dioxoisoindolin-2-yl) benzenesulphonamide] | –
insoluble | 498 ± 34 nM | 316 ± 28 nM | 308 °C | NS(=O)(=O)c1cccc(N2C(=O)c3c(Cl)c(Cl)c(Cl)c(Cl)c3C2=O)c1 [Compound 9, 3-(4,5,6,7-tetrachloro-1,3-dioxoisoindolin-2-yl) benzenesulphonamide] | –
insoluble | – | 226 ± 13 nM | 286 °C | NS(=O)(=O)c1ccc(CCN2C(=O)c3c(Cl)c(Cl)c(Cl)c(Cl)c3C2=O)cc1 [Compound 8, 4-(2-(4,5,6,7-tetrachloro-1,3-dioxoisoindolin-2-yl)ethyl)benzenesulphonamide] | –
insoluble | 40 ± 1.5 nM | 99 ± 3.5 nM | 265 °C | NS(=O)(=O)c1ccc(N2C(=O)c3c(Cl)c(Cl)c(Cl)c(Cl)c3C2=O)c(Br)c1 [Compound 13, 3-bromo-4-(4,5,6,7-tetrachloro-1,3-dioxoisoindolin-2-yl) benzenesulphonamide] | –
insoluble | 49 ± 0.4 nM | 22 ± 1.7 nM | 303 °C | NS(=O)(=O)c1ccc(N2C(=O)c3c(Cl)c(Cl)c(Cl)c(Cl)c3C2=O)c(Cl)c1 [Compound 12, 3-chloro-4-(4,5,6,7-tetrachloro-1,3-dioxoisoindolin-2-yl)benzenesulphonamide] | –
insoluble | 88 ± 7 nM | 14 ± 1 nM | 278 °C | NS(=O)(=O)c1ccc(N2C(=O)c3c(Cl)c(Cl)c(Cl)c(Cl)c3C2=O)c(F)c1 [Compound 11, 3-fluoro-4-(4,5,6,7-tetrachloro-1,3-dioxoisoindolin-2-yl) benzenesulphonamide] | –

Source: article PMC8308639, “Synthesis and Human Carbonic Anhydrase I, II, IX, and XII Inhibition Studies of Sulphonamides Incorporating Mono-, Bi- and Tricyclic Imide Moieties” (Pharmaceuticals, 2021)
